Entries after “also recorded” stand apart in the source; their conditions may differ. Structures can show the parent of a compound that is named as a salt.
Assay: In vitro dissolution procedure, USP Basket Method (Apparatus I)
Type: physicochemical
Conditions: 24 hours; for release of medicament, dependence on amount of high melting glyceride: Example 1, FIG. 1, Compritol 888 15-30%, hydrochloride; for release of medicament, dependence on type of medicament: Example 6, FIG. 6, 20% medicament, Methocel E10 P 3%, polysorbate 80 1%; for release of medicament, dependence on amount of surfactant: Example 7, FIG. 7, polysorbate 80 2.5, 5.0, 10.0%
Experimental: The dissolution release of the formulations was determined by the USP Basket Method (Apparatus I). By this method, samples are tested in a 40 mesh basket rotating at 100 RPM. Release media were used in a volume of 900 ml per dissolution vessel, maintained at 37° C. Double distilled deionized water was generally used as the dissolution media. Some formulations were also evaluated in simulated gastric fluid (0.1N hydrochloric acid, pH=1.2, no enzyme added) or simulated intestinal fluid (0.05 M phosphate buffer, pH=7.4, no enzyme added). Nine samples of 3.0 ml each were automatically collected at 2, 4, 6, […], 12, 14, 20 and 24 hours. The absorbency of the samples were measured at the peak wavelength in the ultraviolet spectrum with Hewliet Packard model 8453 spectrophotometer. The absorbency values were converted to percentages of added medicament that was released.

SMILES: OCCOCCN1CCN(C(c2ccccc2)c2ccc(Cl)cc2)CC1 (stereo not shown) [hydroxyzine hydrochloride]
- release of medicament, dependence on amount of high melting glyceride (hydroxyzine HCl 20%, soybean oil): moderately faster as the amount of higher fatty acid ester in the formulation is increased over a small range and then levels off
- release of medicament, dependence on amount of high melting glyceride (hydroxyzine HCl 20%, soybean oil, listed as hydroxyzine HCl): consistent sustained release over 24 hours
- release of medicament, dependence on type of oil (Example 2, FIG. 2, hydroxyzine HCl 20%, Compritol 888 25%, oil 51%): sustained at the same level over the period
- release of medicament, dependence on type of high melting glyceride (Example 3, FIG. 3, hydroxyzine HCl 20%, glyceride 25%, soybean oil): fastest with Precirol AT05 slowest with Compritol 888/WL 2155, and intermediate with Compritol 888
- release of medicament, dependence on type of cellulosic polymer (Example 4, FIG. 4, hydroxyzine HCl 20%, polymer 3% (Methocel E10 P, K15M, A4M, Ethocel P20)): released considerably faster from a formulation of Methocel K15M than Ethocel P20
- release of medicament, dependence on type of medicament (Compritol 888 25%, soybean oil): released faster than niacin or caffeine

SMILES: O=C(O)c1cccnc1 [niacin]
- release of medicament, dependence on amount of surfactant (niacin 20%, olive oil): faster the higher the level of the surfactant above a level of about 5.0% of the total amount of the formulation
- release of medicament, dependence on amount of surfactant (niacin 20%, olive oil, listed as Niacin): sustained over 24 hours
- release of medicament, with or without cellulosic polymer (Example 8, FIG. 8, niacin 20%, Methocel E10 P 3% or none, olive oil): released faster from a formulation containing Methocel E10P than from a formulation devoid of the cellulosic polymer

SMILES: COCCc1ccc(OCC(O)CNC(C)C)cc1 (stereo not shown) [metoprolol tartrate]
- release of medicament, dependence on type of medicament (Compritol 888 25%, soybean oil): released faster than niacin or caffeine
- release of medicament, low hydroxypropyl ether celluloses (Example 11, FIG. 11, metoprolol tartrate 20%, LH 11, LH 22 or LH 30 3%, olive oil): sustained over a 24 hour period; also recorded: essentially the same for each cellulosic polymer of the formulation
- release of medicament, dependence on amount of Compritol 888 (Example 12, FIG. 12, metoprolol tartrate 20%, Compritol 888 15-35%, olive oil): sustained over 24 hours; also recorded: higher at the higher amounts of compritol

SMILES: Cn1c(=O)c2c(ncn2C)n(C)c1=O [caffeine]
- release of medicament, dependence on cellulosic polymer (Example 9, FIG. 9, caffeine 20%, Methocel E10 P, Methocel K100M, Ethocel P20 or no polymer, olive oil): faster when the formulation contains Methocel K100M than Ethocel P20; also recorded: sustained over a 24 hour period
